# From patent publication US20250114460A1, “NOVEL PLK1 DEGRADATION INDUCING COMPOUND” (UPPTHERA, INC., priority 2021, published 2025)
# Target: T1, PLK1 (Homo sapiens, UniProt P53350)
# T1 construct: endogenous in cells; host or cells: HeLa LgBit (Plk1-HiBit KI): HeLa stably expressing LgBit, with a CRISPR/Cas9 knock-in of HiBit at the endogenous PLK1 locus
# Assay: Luciferase assay for PLK1 in HeLa LgBit (Plk1-HiBit KI) cell line
# Type: cell-based
# Details: 300 nM compound, luminescence after 9 hours
# Procedure: 2. Luciferase Assay for PLK1
# (1) Preparation and Culture of HeLa LgBit (Plk1-HiBit KI) Cell Line
# A HeLa cell line in which the LgBit vector was transfected and expressed stably was prepared. Then, after constructing gRNA and donor to express the HiBit amino acid sequence behind the C-terminal of the Plk1 gene, which was inherent in the cell, it was inserted into the cell together with a vector capable of expressing CRISPR/Cas9. Only the cells in which the insertion was completed and knock-in had progressed were selected, sub-cultured and used.
# (2) Treatment of Compounds of the Present Invention and Method of Luciferase Assay
# In the case of HeLa LgBit (Plk1-HiBit KI), the compounds were treated after being released after thymidine block, and the process was as follows. Thymidine (Sigma-Aldrich Cat. No. T9250-5G) was completely dissolved in DW and used in the experiment. For thymidine block, the products were treated with 2 mM of thymidine and then incubated for 24 hours. For release and chemical treatment, the medium was suctioned and washed with 1×PBS. TrypLE™ was added and incubated in 37° C. CO2 incubator for 5 min. Cells neutralized by adding complete media were counted through a counter. For each well of a 96-well culture plate (SPL), 3.3×10^4 cells and a total medium volume of 150 μL were seeded and incubated in a CO2 incubator.
# Each cell line was incubated in a CO2 incubator for 18 hours, and Endurazine was added to each well to make up 4% of the total volume. After adding the compound of the present invention in a 96-well white plate (SPL) to a concentration of 300 nM, the wavelength of the plate reader (BMG Labtech, CLARIOstar Plus) was set to […], and then the luminescence was tracked in real time.
# In Table 2, Activity represents the ratio of the luminescense value of each Exemplary Compound treatment group to DMSO treatment group (+++: <0.3, ++<0.6, +<0.7).
# T1 sequence (P53350 whole entry): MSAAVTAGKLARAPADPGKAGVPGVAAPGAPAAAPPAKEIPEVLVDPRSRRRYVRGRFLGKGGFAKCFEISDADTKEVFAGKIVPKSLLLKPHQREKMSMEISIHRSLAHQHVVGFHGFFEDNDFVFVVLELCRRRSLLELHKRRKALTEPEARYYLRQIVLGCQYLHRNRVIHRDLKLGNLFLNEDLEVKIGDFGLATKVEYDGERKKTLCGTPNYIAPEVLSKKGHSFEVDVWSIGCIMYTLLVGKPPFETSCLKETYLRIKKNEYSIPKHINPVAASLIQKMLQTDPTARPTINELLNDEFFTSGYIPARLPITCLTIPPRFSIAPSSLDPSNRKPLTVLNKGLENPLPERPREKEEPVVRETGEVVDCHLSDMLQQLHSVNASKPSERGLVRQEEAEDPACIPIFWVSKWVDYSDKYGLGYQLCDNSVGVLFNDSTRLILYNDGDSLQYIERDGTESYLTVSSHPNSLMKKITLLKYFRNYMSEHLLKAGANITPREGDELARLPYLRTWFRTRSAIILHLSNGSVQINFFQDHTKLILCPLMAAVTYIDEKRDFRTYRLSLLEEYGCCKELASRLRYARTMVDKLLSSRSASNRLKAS
row,SMILES,Activity: ratio of the luminescense value of each Exemplary Compound treatment group to DMSO treatment group
1,"COc1cc(N2CCC(CN3CCN(c4ccc5c(c4)C(=O)N(C4CCC(=O)NC4=O)C5=O)CC3)CC2)c(F)cc1Nc1ncc2c(n1)N(C1CCCC1)CC(F)(F)C(=O)N2C (centres unmarked) [Compound 111, 5-(4-((1-(4-((9-cyclopentyl-7,7-difluoro-5-methyl-6-oxo-6,7,8,9-tetrahydro-5H-pyrimido[4,5-b][1,4]diazepin-2-yl)amino)-2-fluoro-5-methoxyphenyl)piperidin-4-yl)methyl)piperazin-1-yl)-2-(2,6-dioxopiperidin-3-yl)isoindoline-1,3-dione]",+ (+<0.7)
2,"COc1cc(C(=O)NC2CCN(CCSc3cccc4c3C(=O)N(C3CCC(=O)NC3=O)C4=O)CC2)c(F)cc1Nc1ncc2c(n1)N(C1CCCC1)CC(F)(F)C(=O)N2C (centres unmarked) [Compound 11, 4-((9-cyclopentyl-7,7-difluoro-5-methyl-6-oxo-6,7,8,9-tetrahydro-5H-pyrimido[4,5-b][1,4]diazepin-2-yl)amino)-N-(1-(2-((2-(2,6-dioxopiperidin-3-yl)-1,3-dioxoisoindolin-4-yl)thio)ethyl)piperidin-4-yl)-2-fluoro-5-methoxybenzamide]",++ (++<0.6)
3,"COc1cc(C(=O)NC2CCCC(N(C)C3CCN(c4cccc5c4C(=O)N(C4CCC(=O)NC4=O)C5=O)CC3)C2)ccc1Nc1ncc2c(n1)N(C(C)C)CC(F)(F)C(=O)N2C (centres unmarked) [Compound 166, 4-((7,7-difluoro-9-isopropyl-5-methyl-6-oxo-6,7,8,9-tetrahydro-5H-pyrimido[4,5-b][1,4]diazepin-2-yl)amino)-N-(3-((1-(2-(2,6-dioxopiperidin-3-yl)-1,3-dioxoisoindolin-4-yl)piperidin-4-yl)(methyl)amino)cyclohexyl)-3-methoxybenzamide]",+ (+<0.7)
4,"COc1cc(C(=O)NC2CCN(C(=O)CC3CN(c4cccc5c4C(=O)N(C4CCC(=O)NC4=O)C5=O)C3)CC2)c(F)cc1Nc1ncc2c(n1)N(C1CCCC1)CC(F)(F)C(=O)N2C (centres unmarked) [Compound 204, 4-((9-cyclopentyl-7,7-difluoro-5-methyl-6-oxo-6,7,8,9-tetrahydro-5H-pyrimido[4,5-b][1,4]diazepin-2-yl)amino)-N-(1-(2-(1-(2-(2,6-dioxopiperidin-3-yl)-1,3-dioxoisoindolin-4-yl)azetidin-3-yl)acetyl)piperidin-4-yl)-2-fluoro-5-methoxybenzamide]",+ (+<0.7)
5,"COc1cc(C(=O)NC2CCN(CCNc3cccc4c3C(=O)N(C3CCC(=O)NC3=O)C4=O)CC2)c(F)cc1Nc1ncc2c(n1)N(C1CCCC1)CC(F)(F)C(=O)N2C (centres unmarked) [Compound 1, 4-((9-cyclopentyl-7,7-difluoro-5-methyl-6-oxo-6,7,8,9-tetrahydro-5H-pyrimido[4,5-b][1,4]diazepin-2-yl)amino)-N-(1-(2-((2-(2,6-dioxopiperidin-3-yl)-1,3-dioxoisoindolin-4-yl)amino)ethyl)piperidin-4-yl)-2-fluoro-5-methoxybenzamide]",++ (++<0.6)
6,"COc1cc(C(=O)N[C@H]2CC[C@H](OC3CCN(c4ccc5c(c4)C(=O)N(C4CCC(=O)NC4=O)C5=O)CC3)CC2)c(F)cc1Nc1ncc2c(n1)N(C1CCCC1)CC(F)(F)C(=O)N2C (some centres unmarked) [Compound 116, 4-((9-cyclopentyl-7,7-difluoro-5-methyl-6-oxo-6,7,8,9-tetrahydro-5H-pyrimido[4,5-b][1,4]diazepin-2-yl)amino)-N-((1r,4r)-4-((1-(2-(2,6-dioxopiperidin-3-yl)-1,3-dioxoisoindolin-5-yl)piperidin-4-yl)oxy)cyclohexyl)-2-fluoro-5-methoxybenzamide]",++ (++<0.6)
7,"COc1cc(C(=O)NC2CCN(C[C@@H]3CCN(c4cccc5c4C(=O)N(C4CCC(=O)NC4=O)C5=O)C3)CC2)ccc1Nc1ncc2c(n1)N(C1CCCC1)CC(F)(F)C(=O)N2C (stereo partly drawn) [Compound 47, 4-((9-cyclopentyl-7,7-difluoro-5-methyl-6-oxo-6,7,8,9-tetrahydro-5H-pyrimido[4,5-b][1,4]diazepin-2-yl)amino)-N-(1-(((3S)-1-(2-(2,6-dioxopiperidin-3-yl)-1,3-dioxoisoindolin-4-yl)pyrrolidin-3-yl)methyl)piperidin-4-yl)-3-methoxybenzamide]",++ (++<0.6)
8,"COc1cc(C(=O)N2CCC(CCCCN3CCN(c4cccc5c4C(=O)N(C4CCC(=O)NC4=O)C5=O)CC3)CC2)ccc1Nc1ncc2c(n1)N(C1CCCC1)CC(F)(F)C(=O)N2C (centres unmarked) [Compound 96, 4-(4-(4-(1-(4-((9-cyclopentyl-7,7-difluoro-5-methyl-6-oxo-6,7,8,9-tetrahydro-5H-pyrimido[4,5-b][1,4]diazepin-2-yl)amino)-3-methoxybenzoyl)piperidin-4-yl)butyl)piperazin-1-yl)-2-(2,6-dioxopiperidin-3-yl)isoindoline-1,3-dione]",++ (++<0.6)
9,"CN1C(=O)C(F)(F)CN(C2CCCC2)c2nc(Nc3ccc(C(=O)NC4CCN(C(=O)CCN5CCN(c6cccc7c6C(=O)N(C6CCC(=O)NC6=O)C7=O)CC5)CC4)cc3C(F)(F)F)ncc21 (centres unmarked) [Compound 75, 4-((9-cyclopentyl-7,7-difluoro-5-methyl-6-oxo-6,7,8,9-tetrahydro-5H-pyrimido[4,5-b][1,4]diazepin-2-yl)amino)-N-(1-(3-(4-(2-(2,6-dioxopiperidin-3-yl)-1,3-dioxoisoindolin-4-yl)piperazin-1-yl)propanoyl)piperidin-4-yl)-3-(trifluoromethyl)benzamide]",++ (++<0.6)
10,"COc1cc(C(=O)N2CCN(CCCCNc3cccc4c3C(=O)N(C3CCC(=O)NC3=O)C4=O)CC2)c(F)cc1Nc1ncc2c(n1)N(C1CCCC1)CC(F)(F)C(=O)N2C (centres unmarked) [Compound 184, 4-((4-(4-(4-((9-cyclopentyl-7,7-difluoro-5-methyl-6-oxo-6,7,8,9-tetrahydro-5H-pyrimido[4,5-b][1,4]diazepin-2-yl)amino)-2-fluoro-5-methoxybenzoyl)piperazin-1-yl)butyl)amino)-2-(2,6-dioxopiperidin-3-yl)isoindoline-1,3-dione]",+ (+<0.7)
11,"COc1cc(C(=O)N[C@H]2CC[C@H](N3CCN(CCOCCOc4cccc5c4CN(C4CCC(=O)NC4=O)C5=O)CC3)CC2)ccc1Nc1ncc2c(n1)N(C1CCCC1)CC(F)(F)C(=O)N2C (some centres unmarked) [Compound 198, 4-((9-cyclopentyl-7,7-difluoro-5-methyl-6-oxo-6,7,8,9-tetrahydro-5H-pyrimido[4,5-b][1,4]diazepin-2-yl)amino)-N-((1r,4r)-4-(4-(2-(2-((2-(2,6-dioxopiperidin-3-yl)-1-oxoisoindolin-4-yl)oxy)ethoxy)ethyl)piperazin-1-yl)cyclohexyl)-3-methoxybenzamide]",++ (++<0.6)
12,"COc1cc(C(=O)NN2CCN(C3CCN(c4ccc5c(c4)C(=O)N(C4CCC(=O)NC4=O)C5=O)CC3(F)F)CC2)ccc1Nc1ncc2c(n1)N(C(C)C)CC(F)(F)C(=O)N2C (centres unmarked) [Compound 168, 4-((7,7-difluoro-9-isopropyl-5-methyl-6-oxo-6,7,8,9-tetrahydro-5H-pyrimido[4,5-b][1,4]diazepin-2-yl)amino)-N-(4-(1-(2-(2,6-dioxopiperidin-3-yl)-1,3-dioxoisoindolin-5-yl)-3,3-difluoropiperidin-4-yl)piperazin-1-yl)-3-methoxybenzamide]",++ (++<0.6)
13,"COc1cc(C(=O)N2CCN(CCCN3CCN(c4cccc5c4C(=O)N(C4CCC(=O)NC4=O)C5=O)CC3)CC2)ccc1Nc1ncc2c(n1)N(C1CCCC1)CC(F)(F)C(=O)N2C (centres unmarked) [Compound 87, 4-(4-(3-(4-(4-((9-cyclopentyl-7,7-difluoro-5-methyl-6-oxo-6,7,8,9-tetrahydro-5H-pyrimido[4,5-b][1,4]diazepin-2-yl)amino)-3-methoxybenzoyl)piperazin-1-yl)propyl)piperazin-1-yl)-2-(2,6-dioxopiperidin-3-yl)isoindoline-1,3-dione]",++ (++<0.6)
14,"COc1cc(C(=O)NC2CCN(CCCc3cccc4c3C(=O)N(C3CCC(=O)NC3=O)C4=O)CC2)ccc1Nc1ncc2c(n1)N(C1CCCC1)CC(F)(F)C(=O)N2C (centres unmarked) [Compound 14, 4-((9-cyclopentyl-7,7-difluoro-5-methyl-6-oxo-6,7,8,9-tetrahydro-5H-pyrimido[4,5-b][1,4]diazepin-2-yl)amino)-N-(1-(3-(2-(2,6-dioxopiperidin-3-yl)-1,3-dioxoisoindolin-4-yl)propyl)piperidin-4-yl)-3-methoxybenzamide]",++ (++<0.6)
